From article PMC8251916 (Chemistry (Weinheim an Der Bergstrasse, Germany), 2021)
Like-named read-outs stand apart in the source and are kept apart here.

Legend:
[1] = test system: EBR1-K+ (DNA, G4) GGGCAGGGGGTGATGGGGAGGAGCCAGGG; test: UV-Vis titration; conditions: independent/equivalent sites, 10 µM ligand, DNA up to 30 µM, apparent
[2] = test system: telo23-K+ (hybrid type human telomeric G4); test: UV-Vis titration, telo23-K+; type: binding; conditions: for Ka, telo23-K+: UV-Vis titration
Procedure: (§1) To obtain quantitative information on the binding of NDI 1 and PDI 3 to the previously assessed G4 and duplex DNA structures, ultraviolet‐visible absorbance spectroscopy (UV‐Vis) titrations were conducted (Figure 3 and S10). In all cases the ligand concentration was kept constant at 10 μM, whilst oligonucleotide was titrated in up to a final concentration of 30 μM. The observed binding isotherms were fitted to an independent/equivalent sites binding model, and binding constants (K a) were determined. […]
(§2) telo22-Na+ (antiparallel basket […]
(§3) telo23 and telo22 were selected as models for the human telomeric G-quadruplex under K+ and Na+ conditions, respectively, as they have been the subject of detailed structural studies,[S8,S9] […]
(§4) used. telo23 forms primarily a (3+1) hybrid structure under K+ conditions,[S8] whilst telo22 forms a single antiparallel fold.[S9]
The oligonucleotides were at a concentration of 5 µM and the buffers used were either potassium phosphate (100 mM, pH 7.4) for telo23-K+, EBR1-K+ and ds26-K+ or sodium phosphate (100 mM, pH 7.4) for telo22-Na+. The reported spectrum for each sample represents the average of 3 scans and is baseline corrected for the buffer used. Data processing was carried out using Prism 7 (GraphPad Software) with a 4-point second order smoothing polynomial applied to all spectra. Observed ellipticities were converted to molar ellipticity.
(§5) UV-Visible Absorbance Spectroscopy
Absorbance spectra were recorded on a Cary 60 UV-Visible (UV-Vis) spectrophotometer using a room-light immune fibre optic probe with 10 mm path length. The UV-Vis spectra were […]
were corrected for background and buffer absorbance. The oligonucleotides and buffer conditions were the same as employed in the CD experiments.
In the titrations, the concentration of ligand was fixed at 10 µM in an initial volume of 500 µL.
Aliquots of oligonucleotide were added using a microsyringe from a 100 µM stock solution in appropriate buffer containing also 10 µM ligand to maintain constant ligand concentration.
Note: the oligonucleotide solution was annealed by heating to 90 °C for 2 minutes and then cooling on ice prior to the addition of ligand (to avoid annealing in the presence of ligand).
Following addition, the solution was mixed thoroughly and the UV-visible spectrum was […]

[3] = test system: EBR1-K+ (mixed G4 from T. brucei); test: UV-Vis titration, EBR1-K+; type: binding
Procedure: as §1, §2, §3, §4
(§6) The oligonucleotides were at a concentration of 5 µM and the buffers used were either potassium phosphate (100 mM, pH 7.4) for telo23-K+, EBR1-K+ and ds26-K+ or sodium phosphate (100 mM, pH 7.4) for telo22-Na+. […]
as §5
(§7) Absorbance spectra were recorded on a Cary 60 UV-Visible (UV-Vis) spectrophotometer using a room-light immune fibre optic probe with 10 mm path length. […]
(§8) were corrected for background and buffer absorbance. […]

[4] = test system: ds26-K+ (self-complementary duplex); test: UV-Vis titration, ds26-K+; type: binding
Procedure: as §1, §2, §3, §4, §6, §5, §7, §8

[5] = test system: FmycT-K+ (c-Myc promoter G-quadruplex, parallel); conditions: 200 nM DNA, previously reported data for 1, cited from earlier work
[6] = test system: F21T-K+ (human telomeric G-quadruplex, mixed parallel/hybrid); conditions: 200 nM DNA, previously reported data for 1, cited from earlier work
[7] = test system: F21T-Na+ (human telomeric G-quadruplex, antiparallel); conditions: 200 nM DNA, previously reported data for 1, ref S16, cited from earlier work
[8] = test system: F21T (DNA, G4) GGGTTAGGGTTAGGGTTAGGG; test: FRET melting; conditions: 10 mM Li cacodylate, 5 µM ligand, 200 nM DNA
[9] = test system: EBR1-K+ (DNA, G4) GGGCAGGGGGTGATGGGGAGGAGCCAGGG; test: CD titration; conditions: 20 °C, 5 µM DNA, up to 10 equivalents ligand
[10] = test system: F10T (DNA, hairpin, hexaethylene glycol (HEG) linker between 10 and 11) TATAGCTATATATAGCTATA; test: FRET melting; conditions: 10 mM K+, 90 mM Li+; 10 mM Li cacodylate; 5 µM ligand, 200 nM DNA
[11] = test system: FMycT (DNA, G4) TTGAGGGTGGGTAGGGTGGGTAA; test: FRET melting; conditions: 1 mM K+, 99 mM Li+; 10 mM Li cacodylate; 5 µM ligand, 200 nM DNA
[12] = test system: telo22-Na+ (DNA, G4) AGGGTTAGGGTTAGGGTTAGGG; test: NMR titration; conditions: 70 mM NaCl; 25 mM sodium phosphate pH 7.0, 10% D2O, 298 K; 185 µM DNA, up to 2 equivalents

SMILES | Ka [1] | Ka, telo23-K+ [2] | selectivity for telo23-K+ G4 over EBR1-K+ G4 ([2]; ratio of Ka, UV-Vis) [fold] | selectivity for telo23-K+ G4 over ds26-K+ duplex ([2]; ratio of Ka, UV-Vis) [fold] | Ka, EBR1-K+ [3] | Ka, ds26-K+ [4] | ΔTm FmycT-K+ ([5]; 1 µM ligand, ref S16) [°C] | ΔTm FmycT-K+ ([5]; 5 μM ligand) [°C] | ΔTm FmycT-K+ ([5]; 10 µM ligand, ref S16) [°C] | ΔTm F21T-K+ ([6]; 1 µM ligand, ref S16) [°C] | ΔTm F21T-K+ ([6]; 5 μM ligand) [°C] | ΔTm F21T-K+ ([6]; 10 µM ligand, ref S16) [°C] | ΔTm F21T-Na+ ([7]; 1 µM ligand) [°C] | ΔTm F21T-Na+ ([7]; 10 µM ligand) [°C] | ΔTm ([8]; 10 mM K+, 90 mM Li+) [°C] | ΔTm ([8]; 100 mM Na+) [°C] | binding [9] | ΔTm [10] [°C] | ΔTm [11] [°C] | binding [12]
CN1CCN(CCCN2C(=O)c3ccc4c5ccc6c7c(ccc(c8ccc(c3c48)C2=O)c75)C(=O)N(CCCN2CCN(C)CC2)C6=O)CC1 [Compound 3] | 3×10^5 | 2×10^6 | ~7 | 40 | 3×10^5 | 5×10^4 |  |  |  |  |  |  |  |  |  |  |  |  |  | 
CN1CCN(CCCN2C(=O)c3ccc4c5c(ccc(c35)C2=O)C(=O)N(CCCN2CCN(C)CC2)C4=O)CC1 [Compound 1] | 2×10^6 | 6×10^6 |  |  | 2×10^6 | 1×10^6 | 0 ± 1 | 7±2 | 13 ± 1 | 10 ± 1 | 14±2 | 20 ± 1 | -2 ± 1 | 2 ± 1 |  |  |  |  |  | 
CN1CCN(CCCNC(=O)c2ccc(Oc3ccc(C(C)(C)c4ccc(Oc5ccc(C(=O)NCCCN6CCN(C)CC6)c(C(=O)NCCCN6CCN(C)CC6)c5)cc4)cc3)cc2C(=O)NCCCN2CCN(C)CC2)CC1 [Compound 11] |  |  |  |  |  |  |  |  |  |  |  |  |  |  | 7±2 | 1±1 | yes | 0±1 | 5±1 | yes
